Source: patent publication US20040092475A1, “Organic compounds” (priority 2002, published 2004)
Structures can show the parent of a compound that is named as a salt.

Assays:
[1] = system: receptor-mediated calcium entry (RMCE); details: Merritt et al, Biochem. J. (1990) 271: 515-522; cited from earlier work
murine TRPC6 ion channel = target: T1, murine TRPC6 ion channel (Mus musculus, UniProt Q61143); details: Inoue et al, Circ. Res. (2001) 88: 325-332; cited from earlier work
T1 sequence (Q61143 1-930): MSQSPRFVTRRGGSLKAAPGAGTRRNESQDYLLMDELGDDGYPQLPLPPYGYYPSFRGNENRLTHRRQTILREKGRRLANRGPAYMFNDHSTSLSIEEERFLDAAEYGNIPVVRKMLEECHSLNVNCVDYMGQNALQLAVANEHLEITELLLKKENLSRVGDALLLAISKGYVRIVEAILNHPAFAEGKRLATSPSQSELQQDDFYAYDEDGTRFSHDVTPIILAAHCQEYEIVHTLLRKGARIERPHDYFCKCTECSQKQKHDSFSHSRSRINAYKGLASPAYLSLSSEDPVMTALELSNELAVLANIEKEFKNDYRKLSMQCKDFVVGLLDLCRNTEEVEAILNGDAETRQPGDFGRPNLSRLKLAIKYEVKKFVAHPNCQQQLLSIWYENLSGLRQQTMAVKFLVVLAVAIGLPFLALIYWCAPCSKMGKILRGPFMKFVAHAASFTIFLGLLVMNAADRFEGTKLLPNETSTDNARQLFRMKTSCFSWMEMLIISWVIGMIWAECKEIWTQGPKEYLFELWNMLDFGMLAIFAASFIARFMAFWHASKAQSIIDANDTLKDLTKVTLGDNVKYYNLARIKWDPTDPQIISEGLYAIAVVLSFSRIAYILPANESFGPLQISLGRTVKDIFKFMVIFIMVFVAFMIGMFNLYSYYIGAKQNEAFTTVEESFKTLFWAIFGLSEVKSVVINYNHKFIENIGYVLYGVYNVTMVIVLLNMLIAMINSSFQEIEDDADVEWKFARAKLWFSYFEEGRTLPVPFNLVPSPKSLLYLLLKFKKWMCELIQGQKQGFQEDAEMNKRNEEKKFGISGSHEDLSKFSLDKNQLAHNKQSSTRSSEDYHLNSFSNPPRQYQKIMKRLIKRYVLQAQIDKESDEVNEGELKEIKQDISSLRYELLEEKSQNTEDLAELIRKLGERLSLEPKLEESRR

human TRPC6 ion channel = target: T2, human TRPC6 ion channel (Homo sapiens, UniProt Q9Y210); assay: FLIPR membrane potential assay, carbachol-stimulated TRPC6-expressing cells (TRPC6 clone 14); type: cell-based; details: for Mean fluorescence response calculated as (Max − Min)/Min: 10 min pre-treatment, n=10 wells, control 1.219
T2 construct: expressed in transfected cells; host or cells: TRPC6 clone 14 cells
T2 sequence (Q9Y210 1-931): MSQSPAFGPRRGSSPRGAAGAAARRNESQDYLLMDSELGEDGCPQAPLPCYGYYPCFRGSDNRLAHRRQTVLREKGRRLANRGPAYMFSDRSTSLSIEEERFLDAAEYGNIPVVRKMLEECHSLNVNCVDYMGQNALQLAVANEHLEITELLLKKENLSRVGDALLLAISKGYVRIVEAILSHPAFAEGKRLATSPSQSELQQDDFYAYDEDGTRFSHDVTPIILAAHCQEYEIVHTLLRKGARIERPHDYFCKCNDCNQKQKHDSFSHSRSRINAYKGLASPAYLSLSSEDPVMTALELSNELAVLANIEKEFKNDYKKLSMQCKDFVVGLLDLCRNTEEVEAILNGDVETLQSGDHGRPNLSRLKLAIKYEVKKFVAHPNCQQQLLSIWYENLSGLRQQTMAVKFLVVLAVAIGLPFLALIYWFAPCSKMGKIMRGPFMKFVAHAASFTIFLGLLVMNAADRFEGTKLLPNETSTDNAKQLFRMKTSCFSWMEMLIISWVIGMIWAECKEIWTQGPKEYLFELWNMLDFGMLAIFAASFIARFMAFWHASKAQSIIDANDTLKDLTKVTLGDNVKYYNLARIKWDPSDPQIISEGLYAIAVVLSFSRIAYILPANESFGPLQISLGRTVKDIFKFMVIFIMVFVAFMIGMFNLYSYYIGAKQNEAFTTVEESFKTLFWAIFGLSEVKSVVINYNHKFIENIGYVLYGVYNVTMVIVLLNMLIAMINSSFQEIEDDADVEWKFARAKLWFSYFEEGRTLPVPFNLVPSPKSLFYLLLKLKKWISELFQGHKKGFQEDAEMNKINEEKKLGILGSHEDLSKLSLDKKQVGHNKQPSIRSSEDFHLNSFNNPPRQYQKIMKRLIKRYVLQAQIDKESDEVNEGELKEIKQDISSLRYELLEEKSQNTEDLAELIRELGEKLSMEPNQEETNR
Experimental: In a suitable test for any inhibition of the TRPC6 channel, cells that express an endogenous G protein-coupled calcium mobilising receptor e.g. muscarinic acetylcholine receptor that can activate TRPC6 channels are used and a receptor agonist e.g. muscarinic acetylcholine receptor agonist is added to stimulate the TRPC6 channels. The cells are treated with the candidate substance prior to addition of the receptor agonist. That should produce an increase in fluorescence, but the magnitude of the increase will be reduced if the candidate substance inhibits the TRPC6 channels. Any change in fluorescence can be measured using suitable equipment, for example a fluorescence imaging plate reader.
An assay for screening candidate or test compounds is performed using cells stably-transfected with TRPC6 and expressing a functional TRPC6 channel e.g. the mammalian cell line HEK 293 which expresses an endogenous muscarinic acetylcholine receptor which can activate TRPC6 channels. […] The TRPC6-expressing cells are seeded in 96-well black-walled flat-bottomed microplates in a plating volume of 100 μl and grown to confluence for the assay. To prepare the cells for the assay, the cell culture medium is removed and 100 μl of loading buffer is added to each well. The loading buffer consists of FLIPR® membrane potential dye diluted to the required assay concentration in a buffer composed of 140 mM-NaCl, 0.15 mM CaCl2, 3.3 mM KH2PO4, 1.2 mM MgCl2, 10 mM D-glucose and 20 m M HEPES, at pH7.4 and containing 0.03 mM BAPTA-AM. The plates are incubated at 37° C. for 20 minutes prior to commencing the assay. For the detection of inhibitors of TRPC6, test agents are added to each well either before or after stimulation with the muscarinic acetylcholine receptor agonist carbachol, which activates the TRPC6 channel. The expected effect of an inhibitor would be to reduce the carbachol-stimulated increase in fluorescence. Activators of TRPC6 may be detected by substituting carbachol for a test agent, where activators will stimulate an increase in fluorescence.
TRPC6 clone 14 cells pre-treated with 1-[b-[3-(4-methoxyphenyl)propoxy]-4-methoxyphenethyl]-1H-imidazole.HCl for 10 minutes are stimulated with carbachol (10 μM) in accordance with the assay described in Example 2. The fluorescence is measured prior to carbachol addition (minimum response, i.e. Min.) and when the carbachol-stimulated increase in fluorescence has reached a maximum (maximum response, i.e. Max.). It can be seen in table 1 below that the reduced fluorescence responses are observed in compound treated-cells compared to the control response in the absence of compound.
The data is calculated as a (Max−Min)/Min response. Each concentration of 1-[b-[3-(4-methoxyphenyl)propoxy]-4-methoxyphenethyl]-1H-imidazole.HCl is the mean±SEM (standard error of the mean) of n=10 wells.

For `COc1ccc(CCCOC(Cn2ccnc2)c2ccc(OC)cc2)cc1` (stereo not shown) [1-[b-[3-(4-methoxyphenyl)propoxy]-4-methoxyphenethyl]-1H-imidazole.HCl], the “receptor-mediated calcium entry (RMCE)” value [1] is listed as “inhibit”, the “murine TRPC6 ion channel block” value (murine TRPC6 ion channel) is listed as “block” and the “Mean fluorescence response calculated as (Max − Min)/Min” value (shortened to “Mean fluorescence response calculated”) (human TRPC6 ion channel; compound concentration 0.1 μM, carbachol 10 μM) is listed as 1.172. The “Mean fluorescence response calculated” value (human TRPC6 ion channel; compound concentration 1.0 μM, carbachol 10 μM) was 0.977, the “Mean fluorescence response calculated” value (human TRPC6 ion channel; compound concentration 03 μM (so in the source), carbachol 10 μM) was 1.128 and the “Mean fluorescence response calculated” value (human TRPC6 ion channel; compound concentration 3.0 μM, carbachol 10 μM) was 0.699. For the same compound, the “Mean fluorescence response calculated” value (human TRPC6 ion channel; compound concentration 10.0 μM, carbachol 10 μM) was 0.278, the “Mean fluorescence response calculated” value (human TRPC6 ion channel; compound concentration 30.0 μM, carbachol 10 μM) was 0.122 and the IC50 (human TRPC6 ion channel; mean±S.E.M. from n=4 experiments, carbachol 10 μM, read-out: calculated mean IC50 value) was 4.9 ± 0.8 µM. The “activity of the human TRPC6 ion channel” value (human TRPC6 ion channel; result in words) was “inhibits”.
